Reference: the supplement of paper PMC5579334
± gives the standard deviation of the averaged measurements.

Columns and labels:
[1] = test system: HSC1 (primary human Schwann cells); experiment: drug sensitivity score (DSS, CellTox-Green cytotoxicity, 72 h) (DSS (dimensionless)); higher = more cytotoxic; extreme values may be limits of the assay
Outline: (§1)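 MPNST cell lines and primary human Schwann cells were incubated 72 h at 37 °C in 384-well plates holding five 10-fold compound dilutions. CellTox-Green was added before seeding at a final 1:1000 dilution and reported fluorescence from DNA released by disrupted cells. Signals were scaled to vehicle and positive-control wells, and cultures failing plate quality control were dropped. Drug sensitivity score and relative IC50 come from four-parameter logistic fits, with IC50 censored at the top concentration.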

STS26T [2] = experiment: as above
Outline: as §1

S1507-2 [3] = experiment: as above
Outline: as §1

[4] = test system: HSC2 (primary human Schwann cells); experiment: as above
Outline: as §1

HS-PSS [5] = experiment: as above
Outline: as §1

ST8814 [6] = experiment: as above
Outline: as §1

HS-Sch-2 [7] = experiment: % inhibition of CellTiter-Glo viability at highest tested concentration (72 h), relative to DMSO and benzethonium chloride controls; higher = more inhibition
Outline: (§2)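 Viability was scored by CellTiter-Glo ATP luminescence, scaled from vehicle to positive-control wells, with duplicates averaged where present. The cells, MPNST lines and primary human Schwann cells at 750–1000 per well, sat 72 h at 37 °C, 5% CO2, in 384-well plates preprinted with each compound at five concentrations in 10-fold steps. Four-parameter logistic fits were run on the data. These fits give drug sensitivity score and relative IC50 censored at the top concentration, and percent inhibition is reported at the top concentration.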

S462 [8] = experiment: as above
Outline: as §2

YST-1 [9] = experiment: as above
Outline: as §2

[10] = test system: HSC1 (primary human Schwann cells); experiment: as above
Outline: as §2

STS26T [11] = experiment: as above
Outline: as §2

S1507-2 [12] = experiment: as above
Outline: as §2

[13] = test system: HSC2 (primary human Schwann cells); experiment: as above
Outline: as §2

HS-PSS [14] = experiment: as above
Outline: as §2

ST8814 [15] = experiment: as above
Outline: as §2

HS-Sch-2 [16] = experiment: drug sensitivity score (DSS, CellTiter-Glo viability, 72 h) (DSS (dimensionless)); higher = more sensitive; extreme values may be limits of the assay
Outline: as §2

S462 [17] = experiment: as above
Outline: as §2

YST-1 [18] = experiment: as above
Outline: as §2

[19] = test system: HSC1 (primary human Schwann cells); experiment: as above
Outline: as §2

STS26T [20] = experiment: as above
Outline: as §2

S1507-2 [21] = experiment: as above
Outline: as §2

[22] = test system: HSC2 (primary human Schwann cells); experiment: as above
Outline: as §2

HS-PSS [23] = experiment: as above
Outline: as §2

ST8814 [24] = experiment: as above
Outline: as §2

Compound	drug sensitivity score [1]	drug sensitivity score (STS26T [2])	drug sensitivity score (S1507-2 [3])	drug sensitivity score [4]	drug sensitivity score (HS-PSS [5])	drug sensitivity score (ST8814 [6])	% inhibition (HS-Sch-2 [7])	% inhibition (S462 [8])	% inhibition (YST-1 [9])	% inhibition [10]	% inhibition (STS26T [11])	% inhibition (S1507-2 [12])	% inhibition [13]	% inhibition (HS-PSS [14])	% inhibition (ST8814 [15])	drug sensitivity score (HS-Sch-2 [16])	drug sensitivity score (S462 [17])	drug sensitivity score (YST-1 [18])	drug sensitivity score [19]	drug sensitivity score (STS26T [20])	drug sensitivity score (S1507-2 [21])	drug sensitivity score [22]	drug sensitivity score (HS-PSS [23])	drug sensitivity score (ST8814 [24])
CC(=O)Nc1ccc(C(=O)Nc2ccccc2N)cc1 [Tacedinaline] (max concentration tested 1000 nM)	0	0	0	0	0	0	-2.17%	6.18 ± 0.36%	9.24%	6.93%	4.09%	2.24 ± 3.5%	0.407%	0.39%	-2.81%	0	0	0	0	0	0	0	0	0
CC(C)C[C@H](NC(=O)[C@H](CCc1ccccc1)NC(=O)CN1CCOCC1)C(=O)N[C@@H](Cc1ccccc1)C(=O)N[C@@H](CC(C)C)C(=O)[C@@]1(C)CO1 [Carfilzomib] (max concentration tested 1000 nM)	19.3	21.5	21.4 ± 2.3	19.7	17.5	21.7	102%	104 ± 1.3%	101%	103%	103%	102.9 ± 0.73%	101%	99.9%	102%	31.2	29 ± 2	28.1	23	24.9	21.7 ± 1.4	24.4	23.3	24.8
Cn1c(CCCC(=O)O)nc2cc(N(CCCl)CCCl)ccc21 [Bendamustine] (max concentration tested 10000 nM)	0	0	0	0	0	0	9.41%	-6.58 ± 4%	10.4%	5.73%	0.816%	-3.59 ± 5.5%	8.93%	4.27%	-3.13%	0	0	0.01	0	0	0	0	0	0
Cn1cncc1[C@@](N)(c1ccc(Cl)cc1)c1ccc2c(c1)c(-c1cccc(Cl)c1)cc(=O)n2C [Tipifarnib] (max concentration tested 10000 nM)	0.209	9.1	0	0	0	0	78%	75.3 ± 2%	73.1%	69.7%	87.3%	64.095 ± 0.013%	66.7%	46.5%	59.9%	7.08	10.58 ± 0.032	13.9	6.55	14	14.3 ± 0.82	8.8	5.39	8.98
CNCc1ccc(-c2[nH]c3cc(F)cc4c3c2CCNC4=O)cc1 [Rucaparib] (max concentration tested 10000 nM)	0	0	3.1 ± 4.4	0	0	0	22.2%	27.7 ± 9%	60.9%	4.91%	4.71%	-0.362 ± 7.1%	8.78%	30.1%	4.21%	1.1	2.11 ± 0.82	8.59	0	0	0	0	2.72	0
CNC(=O)c1ccc(N2C(=S)N(c3ccc(C#N)c(C(F)(F)F)c3)C(=O)C2(C)C)cc1F [Enzalutamide] (max concentration tested 10000 nM)	0	0	2.11 ± 3	0	0	0	-3.43%	-3 ± 1.3%	4.16%	14.3%	3.2%	14.2 ± 18%	-3.12%	7.35%	11.6%	0	0	0	0.165	0	1.03 ± 1.4	0	0	0.0064
CCc1c2c(nc3ccc(OC(=O)N4CCC(N5CCCCC5)CC4)cc13)-c1cc3c(c(=O)n1C2)COC(=O)[C@]3(O)CC [Irinotecan] (max concentration tested 10000 nM)	6.2	3.22	2.16 ± 1.5	5.29	3.15	8.16	81.5%	98.1 ± 0.28%	71.2%	63.6%	76.6%	75.8 ± 0.88%	72.5%	58.3%	93.9%	8.31	9.83 ± 0.34	12	9.72	6.61	6.91 ± 0.48	8.79	3.76	9.68
C[C@@H](Oc1cc(-c2cnn(C3CCNCC3)c2)cnc1N)c1c(Cl)ccc(F)c1Cl [Crizotinib] (max concentration tested 1000 nM)	0	0	1.38 ± 2	0	0	0	19.5%	13.3 ± 4.8%	27.5%	21.3%	1.87%	13.3 ± 2.3%	20.8%	48.6%	7.26%	0.41	0.409 ± 0.58	0.85	2.09	0	0.701 ± 0.72	1.21	2.17	0
COc1cc(CCc2cc(NC(=O)c3ccc(N4CC(C)NC(C)C4)cc3)n[nH]2)cc(OC)c1 (configuration not stated) [AZD4547] (max concentration tested 1000 nM)	0	0	0.158 ± 0.22	0	0	0	33.5%	24.6 ± 2.2%	3.65%	22.4%	-2.98%	22.2 ± 3.5%	4.39%	4.91%	9.11%	1.94	2.85 ± 0.75	0	3.09	0	1.28 ± 0.63	0	0	0
CC[C@H](Nc1ncnc2[nH]cnc12)c1nc2cccc(F)c2c(=O)n1-c1ccccc1 [Idelalisib] (max concentration tested 10000 nM)	0	2.81	0	2.82	0	0	3.62%	19.1 ± 8.8%	46.5%	14.6%	49.3%	35.2 ± 8.5%	9.86%	2.74%	21.2%	0	0	5.3	0	4.47	7.05 ± 0.49	0	0	0.546
CN(C)CCN1C(=O)c2cccc3cc(N)cc(c23)C1=O [Amonafide] (max concentration tested 10000 nM)	0	0.0609	2.18 ± 0.64	0.087	4.02	3.57	99.9%	90.9 ± 2.4%	100%	69.3%	78.7%	90.4 ± 2%	76.3%	93.8%	101%	8.84	8.23 ± 0.65	11.1	7.05	5.83	8.84 ± 0.35	6.42	6.59	8.9
Cc1cc2c(F)c(Oc3ncnn4cc(OC[C@@H](C)O)c(C)c34)ccc2[nH]1 [Brivanib] (max concentration tested 1000 nM)	0	0	0	0	0	0	-0.92%	3.36 ± 7.5%	0.09%	-5.58%	4.35%	-1.44 ± 10%	-0.326%	-3.58%	-1.65%	0	0	0	0	0	0	0	0	0
S=P(N1CC1)(N1CC1)N1CC1 [Thio-TEPA] (max concentration tested 50000 nM)	0.888	0	0.0053 ± 0.0075	0	0	0	9.72%	-14.47 ± 0.14%	9.03%	2.2%	-2.04%	-14.5 ± 2.9%	1.51%	3.83%	-6.39%	0.99	0	0	0	0.888	0	0	0	0.888
